Experimental data as given in ChEMBL document CHEMBL1151291, “Antiviral activity of lignans” (J Nat Prod, 1998).
Values after ≈ are worked out from the molar mass of the structure shown.

What was measured:
[1] = test system: Vesicular stomatitis virus; assay: Antiviral activity against VSV infected in BHK cells assessed as inhibition of plaque formation; format: functional, organism-based
[2] = Therapeutic index, ratio of MTC for human primary amnion cells to lowest drug level causing inhibition of HSV1; conditions: read-out: TI
[3] = test system: Human alphaherpesvirus 1; assay: Antiviral activity against HSV1 infected in human primary amnion cells assessed as inhibition of virus-induced pathogenic effect; format: functional
[4] = Cytotoxicity against human primary amnion cells assessed as morphological changes by microscopic examination; format: functional
[5] = test system: Human alphaherpesvirus 1; assay: Antiviral activity against HSV1 infected in monkey CV-1 cells assessed as inhibition of plaque formation; format: functional, organism-based; conditions: Human alphaherpesvirus 1, CV-1
[6] = Therapeutic index, ratio of inhibition of human H9 cells to EC50 for HIV1; format: cell-based; conditions: read-out: TI
[7] = test system: Human immunodeficiency virus 1; assay: Antiviral activity against HIV1 infected in human H9 cells assessed inhibition of viral replication; format: functional, organism-based; conditions: Human immunodeficiency virus 1, H9
[8] = test system: Human immunodeficiency virus 1; assay: Antiviral activity against HIV1 infected in human MT4 cells; format: functional, organism-based; conditions: Human immunodeficiency virus 1, MT4
[9] = test system: MT4; assay: Cytotoxicity against human MT4 cells; format: functional; conditions: read-out: CD50 (the source's name)
[10] = test system: Human immunodeficiency virus; assay: Antiviral activity against HIV assessed as reduction of viral protein production at 0.27 uM; format: functional; set-up: scale not given: the % may be the effect or the level left
[11] = test system: Human immunodeficiency virus; assay: Antiviral activity against HIV assessed as reduction of viral protein production at 0.52 uM; format: functional; set-up: scale not given: the % may be the effect or the level left
[12] = test system: Human immunodeficiency virus; assay: Antiviral activity against cross-resistant HIV mutant; format: functional; conditions: Human immunodeficiency virus 1; read-out: ED50 (the source's name)
[13] = test system: Sindbis virus; assay: Antiviral activity against Sindbis virus in mouse 3T3-L1 cells at 250 nM; format: functional
[14] = test system: Murid betaherpesvirus 1; assay: Antiviral activity against Murine cytomegalovirus in mouse 3T3-L1 cells at 250 nM; format: functional; conditions: Murid betaherpesvirus 1, 3T3-L1
[15] = test system: Vesicular stomatitis virus; assay: Antiviral activity against VSV infected in rabbit RL-33 cells; format: functional
[16] = test system: Sindbis virus; assay: Antiviral activity against Sindbis virus in mouse 3T3-L1 cells at 273 nM; format: functional
[17] = Cytotoxicity against rabbit RL33 cells; format: cell-based, Oryctolagus cuniculus
[18] = test system: Murid betaherpesvirus 1; assay: Antiviral activity against Murine cytomegalovirus in mouse 3T3-L1 cells at 263 nM; format: functional; conditions: Murid betaherpesvirus 1, 3T3-L1
[19] = test system: Human immunodeficiency virus; assay: Antiviral activity against HIV; format: functional, organism-based; conditions: Human immunodeficiency virus 1
[20] = Inhibition of human DNA polymerase alpha
[21] = test system: Murid betaherpesvirus 1; assay: Antiviral activity against Murine cytomegalovirus in mouse 3T3-L1 cells at 241 nM; format: functional; conditions: Murid betaherpesvirus 1, 3T3-L1
[22] = test system: Sindbis virus; assay: Antiviral activity against Sindbis virus in mouse 3T3-L1 cells at 241 nM; format: functional

COc1cc([C@@H]2c3cc4c(cc3[C@H](O)[C@H]3COC(=O)[C@H]23)OCO4)cc(OC)c1O
IC50 [1]: 250 nM
selectivity ratio [2]: 250
Activity [3]: 0.5 µM
Activity [4]: >125 µM
IC50 [5]: 100 nM

COc1ccc(C[C@H]2COC(=O)[C@@H]2Cc2ccc(O)c(O)c2)cc1OC
selectivity ratio [6]: 9
EC50 [7]: 420 nM

COc1cc([C@@H]2c3cc4c(c(O[C@@H]5O[C@H](CO)[C@@H](O)[C@H](O)[C@H]5O)c3C[C@H]3COC(=O)[C@@H]32)OCO4)cc(OC)c1OC
selectivity ratio [2]: 3
Activity [3]: 17 µM
Activity [4]: 52 µM

COc1cc([C@H]2c3c(cc(OC)c(OC)c3OC)C[C@@H](C)[C@@H]2C)cc(OC)c1OC
EC50 [8]: 3.2 µM
CC50 [9]: 34 µM

COc1cc([C@@H]2c3cc4c(cc3[C@@H](OC)[C@H]3COC(=O)[C@@H]23)OCO4)cc(OC)c1OC
IC50 [1]: 2300 nM
IC50 [5]: 900 nM

COc1cc([C@@H]2c3cc4c(cc3[C@H](OC)[C@H]3COC(=O)[C@H]23)OCO4)cc(OC)c1OC
IC50 [1]: 930 nM
IC50 [5]: 460 nM

COc1cc([C@@H]2c3cc4c(c(OC)c3C[C@H]3COC(=O)[C@@H]32)OCO4)cc(OC)c1OC
IC50 [1]: 23 nM
IC50 [5]: 23 nM

COc1cc([C@H]2c3c(cc(OC)c(OC)c3OC)C[C@H]3CSC[C@@H]32)cc(OC)c1OC
EC50 [8]: 0.8 µM
CC50 [9]: 58 µM

COc1cc([C@H]2c3c(cc4c(c3OC)OCO4)C[C@H]3CSC[C@@H]32)cc(OC)c1OC
EC50 [8]: 5.1 µM
CC50 [9]: 163 µM

COc1cc([C@@H]2c3cc4c(cc3C=C3COC(=O)[C@H]32)OCO4)cc(OC)c1OC
IC50 [1]: 250 nM
IC50 [5]: 250 nM

COC(=O)[C@@H]1C(CO)=Cc2cc3c(cc2[C@H]1c1cc(OC)c(OC)c(OC)c1)OCO3
IC50 [1]: 460 nM
IC50 [5]: 460 nM

COc1cc(C[C@@]2(O)C(=O)OC[C@@H]2Cc2ccc(OC)c(OC)c2)ccc1O
Activity [10]: 60%
Activity [11]: 60%

COc1cc([C@@H]2c3cc4c(cc3[C@@H](OC)[C@H]3COC(=O)[C@H]23)OCO4)cc(OC)c1OC
IC50 [1]: 900 nM
IC50 [5]: 900 nM

COc1ccc([C@H]2c3c(cc4c(c3OC)OCO4)C[C@H]3CSC[C@@H]32)cc1OC
EC50 [8]: 3.3 µM
CC50 [9]: > 840 µM

COc1c(O)c(Br)c2c(c1OC)-c1c(c(Br)c(O)c(OC)c1OC)C[C@H](C)[C@H](C)C2
EC50 [12]: 100 nM

COc1c2c(cc3c1[C@H](c1ccc(OC(=O)c4ccccc4)c(O)c1)[C@H]1C(=O)OC[C@@H]1C3)OCO2
EC50 [8]: 5.22 µM
CC50 [9]: > 840 µM

COc1c(O)c(Cl)c2c(c1OC)-c1c(c(Cl)c(O)c(OC)c1OC)C[C@H](C)[C@H](C)C2
EC50 [12]: 100 nM

COc1cc([C@@H]2c3cc4c(c(O)c3C[C@H]3COC(=O)[C@@H]32)OCO4)cc(OC)c1O
selectivity ratio [2]: 4000
Activity [3]: 0.05 µM
inhibition at 0.25 µM [13]: 6%
Activity [4]: 200 µM
inhibition at 0.25 µM [14]: 85%

COc1cc([C@@H]2c3cc4c(cc3[C@@H](O)[C@H]3COC(=O)[C@H]23)OCO4)cc(OC)c1O [4'-DEMETHYLEPIPODOPHYLLOTOXIN]
selectivity ratio [2]: 1
Activity [3]: 13 µM
Activity [4]: 13 µM

COc1cc([C@@H]2c3cc4c(cc3[C@H](O)[C@H]3COC[C@H]23)OCO4)cc(OC)c1OC [ANHYDROPODOPHYLLOL]
selectivity ratio [2]: 800
Activity [3]: 0.25 µM
Activity [4]: >200 µM

COc1cc(C[C@H]2C(=O)OC[C@@H]2Cc2ccc(OC)c(OC)c2)ccc1O [ARCTIGENIN]
Activity [10]: 60%
selectivity ratio [6]: 9
Activity [11]: 60%
EC50 [7]: 420 nM

COc1cc([C@@H]2c3cc4c(cc3[C@H](O)[C@H]3COC(=O)[C@@H]23)OCO4)cc(OC)c1OC [AXL-1717]
selectivity ratio [2]: 75
Activity [3]: 1.9 µM
Activity [4]: 140 µM

COc1cc([C@@H]2c3cc4c(c(O)c3C[C@H]3COC(=O)[C@@H]32)OCO4)cc(OC)c1OC [BETA-PELTATIN A]
selectivity ratio [2]: 333
Activity [3]: 0.36 µM
Activity [4]: 120 µM

COc1cc([C@@H]2c3cc4c(cc3C[C@H]3COC(=O)[C@H]32)OCO4)cc(OC)c1OC [DEOXYPICROPODOPHYLLIN]
IC50 [1]: 2000 nM
IC50 [5]: 2000 nM

COc1cc([C@@H]2c3cc4c(cc3C[C@H]3CSC(=O)[C@@H]32)OCO4)cc(OC)c1OC [DEOXYPODOPHYLLOTOXIN CYCLIC SULFIDE]
selectivity ratio [2]: 3
Activity [3]: 12 µM
Activity [4]: 37 µM

COc1cc([C@@H]2c3cc4c(cc3C[C@H]3CC(=O)C[C@@H]32)OCO4)cc(OC)c1OC [DEOXYPODOPHYLLOTOXIN CYCLOPENTANONE]
selectivity ratio [2]: 2.5
Activity [3]: 49 µM
Activity [4]: 122 µM

COc1cc([C@@H]2c3cc4c(cc3C[C@H]3COC(=O)[C@@H]32)OCO4)cc(OC)c1OC [DESOXYPODOPHYLLOTOXIN]
IC50 [1]: < 25 nM
selectivity ratio [2]: 667
Activity [3]: 0.038 µM
Activity [4]: >25 µM
IC50 [5]: 25 nM

COc1cc2c(O)c3c(c(-c4ccc5c(c4)OCO5)c2cc1OC)C(=O)OC3 [DIPHYLLIN]
MIC [15]: 0.16 µM (≈ 0.0609 µg/mL)
inhibition at 0.273 µM [16]: 18%
Activity [17]: 85 µM
inhibition at 0.263 µM [18]: 11%

COc1cc([C@@H]2c3cc4c(cc3[C@@H](OC(C)=O)[C@H]3CSC(=O)[C@H]23)OCO4)cc(OC)c1OC [EPIPODOPHYLLOTOXIN ACETATE]
IC50 [1]: 220 nM
IC50 [5]: 440 nM

COc1cc([C@@H]2c3cc4c(cc3[C@@H](O)[C@H]3COC(=O)[C@H]23)OCO4)cc(OC)c1OC [EPIPODOPHYLLOTOXIN]
selectivity ratio [2]: 15
Activity [3]: 1.6 µM
Activity [4]: 24 µM

COc1cc([C@@H]2c3cc4c(cc3[C@@H](O[C@@H]3O[C@@H]5CO[C@@H](C)O[C@H]5[C@H](O)[C@H]3O)[C@H]3COC(=O)[C@H]23)OCO4)cc(OC)c1O [ETOPOSIDE]
selectivity ratio [2]: 1.2
Activity [3]: 85 µM
Activity [4]: 100 µM

COc1cc2c(c(OC)c1OC)-c1c(cc3c(c1OC)OCO3)[C@H](OC(=O)c1ccccc1)[C@@](C)(O)[C@@H](C)C2 [GOMISIN G]
IC50 [19]: 11 nM

COc1cc2c(OC)c3c(c(-c4ccc5c(c4)OCO5)c2cc1OC)C(=O)OC3 [JUSTICIDIN A]
MIC [15]: 0.65 µM (≈ 0.256 µg/mL)
Activity [17]: 166 µM

COc1cc2c(c(OC)c1OC)-c1c(cc3c(c1OC)OCO3)C[C@@H](C)[C@@H](C)C2 [KADSURANIN]
IC50 [19]: 2000 nM

COCc1cc2cc(OC)c(OC)cc2c(-c2ccc3c(c2)OCO3)c1C=O [PHYLLAMYRICIN B]
IC50 [20]: 3.5 µM

COc1cc([C@@H]2c3cc4c(cc3[C@H](O)[C@H]3COC(=O)[C@H]23)OCO4)cc(OC)c1OC [PODOFILOX]
inhibition at 0.241 µM [21]: 74%
IC50 [1]: 100 nM
selectivity ratio [2]: 6000
Activity [3]: 0.024 µM
inhibition at 0.241 µM [22]: 3%
Activity [4]: 140 µM
IC50 [5]: 50 nM

COc1cc2cc3c(c(-c4ccc5c(c4)OCO5)c2cc1OC)COC3=O [RETROJUSTICIDIN B]
IC50 [20]: 5.5 µM

COc1c2c(cc3c1-c1c(cc4c(c1OC)OCO4)C[C@H](C)[C@H](C)C3)OCO2 [SCHISANDRIN C]
IC50 [19]: 3100 nM
